Reference: patent publication US9765018B2, “IDO inhibitors” (BRISTOL-MYERS SQUIBB COMPANY, priority 2013, dated 2017)

Legend:
[1] = molecular target: T1, IDO (Homo sapiens (Human), UniProt P14902); assay: Kynurenine assay in IFN-γ-stimulated Hela cells; type: cell-based; conditions: 20 h, read-out: Hela Kyurenine (IC50)
Outline: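 Hela cells adhered 5-6 h, then received inhibitor (top dose 30 μM, 3-fold dilutions to 1.5 nM) plus 100 ng/mL human IFN-γ to induce IDO, 20 h at 37° C. TCA added, 30 min at 50° C hydrolyses N-formylkynurenine to kynurenine. Supernatant mixed with Ehrlich reagent, 10 min RT, absorbance 490 nm.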

[2] = molecular target: T1, IDO; assay: LLE_IDO_ABS_DR (IDO assay, method not described)

T1 sequence (P14902 whole entry): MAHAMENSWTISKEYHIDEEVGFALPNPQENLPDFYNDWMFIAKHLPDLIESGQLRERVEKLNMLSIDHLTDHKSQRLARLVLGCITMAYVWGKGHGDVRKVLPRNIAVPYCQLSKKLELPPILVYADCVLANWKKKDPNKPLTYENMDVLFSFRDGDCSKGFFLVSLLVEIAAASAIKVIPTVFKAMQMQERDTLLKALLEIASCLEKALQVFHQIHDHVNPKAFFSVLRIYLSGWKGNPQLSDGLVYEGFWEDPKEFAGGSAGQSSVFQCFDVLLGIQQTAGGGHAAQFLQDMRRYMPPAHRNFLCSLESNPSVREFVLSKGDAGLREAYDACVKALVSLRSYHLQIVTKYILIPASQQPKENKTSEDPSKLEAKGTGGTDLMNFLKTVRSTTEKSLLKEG

| SMILES | IC50 [1] | IC50 [2] |
| --- | --- | --- |
| COc1ccc(-c2ccc(Oc3c(C)cccc3C(C)(C)C)c(NC(=O)Nc3ccccc3Cl)c2)cc1C(=O)O [Example 54, 4′-(2-tert-butyl-6-methylphenoxy)-3′-(3-(2-chlorophenyl)ureido)-4-methoxybiphenyl-3-carboxylic acid] | 510 nM | 2540 nM |
| COc1ccc(-c2ccc(Oc3ccccc3C(C)(C)C)c(NC(=O)Nc3ccccc3Cl)c2)c(C(=O)O)c1 [Example 164, 4′-(2-tert-butylphenoxy)-3′-(3-(2-chlorophenyl)ureido)-4-methoxybiphenyl-2-carboxylic acid] | 280 nM | 330 nM |
| Cc1cccc(NC(=O)Nc2cc(-c3ccc(C(=O)O)c(Cl)c3)ccc2Oc2ccccc2C(C)(C)C)c1 [Example 213, 4′-(2-tert-butylphenoxy)-3-chloro-3′-(3-m-tolylureido) biphenyl-4-carboxylic acid] | 930 nM | 2560 nM |
| COc1ccc(-c2cnc(Oc3ccccc3C(C)(C)C)c(NC(=O)Nc3ccccc3Cl)c2)cc1C(=O)O [Example 336] | 760 nM | 1110 nM |
| Cc1ccccc1NC(=O)Nc1cc(-c2ccccc2-c2nnn[nH]2)ccc1Oc1cccc2c1CCCC2 [Example 187, 1-(4-(5,6,7,8-tetrahydronaphthalen-1-yloxy)-2′-(1H-tetrazol-5-yl)biphenyl-3-yl)-3-o-tolylurea] | 860 nM | 2330 nM |
| COc1ccc(-c2ccc(Oc3ccccc3C(C)(C)C)c(NC(=O)Nc3ccc(C(F)(F)F)cc3)c2)cc1C(=O)O [Example 43, 4′-(2-tert-butylphenoxy)-4-methoxy-3′-(3-(4-(trifluoromethyl)phenyl)ureido)biphenyl-3-carboxylic acid] | 440 nM | 10000 nM |
| COc1ccc(-c2ccc(Oc3cccc(C(C)(C)C)c3)c(NC(=O)Nc3ccccc3Cl)c2)cc1C(=O)O [Example 110, 4′-(3-tert-butylphenoxy)-3′-(3-(2-chlorophenyl)ureido)-4-methoxybiphenyl-3-carboxylic acid] | 130 nM | 2050 nM |
| Cc1ccc(NC(=O)Nc2cc(-c3ccc(C(=O)O)nc3)ccc2Oc2ccccc2C(C)(C)C)cc1 [Example 178, 5-(4-(2-tert-butylphenoxy)-3-(3-p-tolylureido)phenyl)picolinic acid] | 890 nM | 1740 nM |
| COc1ccc(-c2ccc(Oc3ccccc3C(C)C)c(NC(=O)Nc3cccc(C)c3)c2)cc1C(=O)O [Example 65, 4′-(2-isopropylphenoxy)-4-methoxy-3′-(3-m-tolylureido)biphenyl-3-carboxylic acid] | 200 nM | 630 nM |
| COc1cc(C(=O)O)c(-c2ccc(Oc3ccccc3C(C)(C)C)c(NC(=O)Nc3ccc(C)cc3)c2)cc1OC [Example 165, 4′-(2-tert-butylphenoxy)-4,5-dimethoxy-3′-(3-p-tolylureido)biphenyl-2-carboxylic acid] | 390 nM | 460 nM |
| COc1ccc(-c2ccc(O[C@@H]3CCCC[C@H]3C)c(NC(=O)Nc3cccc(C)c3)c2)cc1C(=O)O (relative stereo) [Example 138, 4-methoxy-4′-((trans)-2-methylcyclohexyloxy)-3′-(3-m-tolylureido)biphenyl-3-carboxylic acid] | 390 nM | 2340 nM |
| Cc1cccc(NC(=O)Nc2cc(-c3ccccc3C(=O)O)ccc2Oc2ccccc2C(C)(C)C)c1 [Example 157, 4′-(2-tert-butylphenoxy)-3′-(3-m-tolylureido)biphenyl-2-carboxylic acid] | 2120 nM | 3680 nM |
| CC(C)(C)c1ccccc1Oc1ccc(-c2ccccc2-c2nnn[nH]2)cc1NC(=O)Nc1ccccc1 [Example 180, 1-(4-(2-tert-butylphenoxy)-2′-(1H-tetrazol-5-yl)biphenyl-3-yl)-3-phenylurea] | 150 nM | 270 nM |
| COc1ccc(-c2ccc(Oc3cccc(C(C)(C)C)c3)c(NC(=O)Nc3ccccc3C)c2)cc1C(=O)O [Example 111, 4′-(3-tert-butylphenoxy)-4-methoxy-3′-(3-o-tolylureido)biphenyl-3-carboxylic acid] | 180 nM | 430 nM |
| COc1ccc(-c2ccc(Oc3ccc4c(c3)CCCC4)c(NC(=O)Nc3cccc(C)c3)c2)cc1C(=O)O [Example 147, 4-methoxy-4′-(5,6,7,8-tetrahydronaphthalen-2-yloxy)-3′-(3-m-tolylureido)biphenyl-3-carboxylic acid] | 460 nM | 1320 nM |
| CCCc1ccccc1Oc1ccc(-c2ccc(OC)c(C(=O)O)c2)cc1NC(=O)Nc1ccccc1Cl [Example 74, 3′-(3-(2-chlorophenyl)ureido)-4-methoxy-4′-(2-propylphenoxy)biphenyl-3-carboxylic acid] | 400 nM | 520 nM |
| COc1ccc(-c2ccc(Oc3ccccc3C(C)(C)C)c(NC(=O)Nc3ccccc3C)c2)c(-c2nnn[nH]2)c1 [Example 193, 1-(4-(2-tert-butylphenoxy)-4′-methoxy-2′-(1H-tetrazol-5-yl)biphenyl-3-yl)-3-o-tolylurea] | 250 nM | 1160 nM |

| SMILES | IC50 [1] | IC50 [2] |
| --- | --- | --- |
| CCCc1ccccc1Oc1ccc(-c2ccc(OC)c(C(=O)O)c2)cc1NC(=O)Nc1ccccc1C [Example 75, 4-methoxy-4′-(2-propylphenoxy)-3′-(3-o-tolylureido)biphenyl-3-carboxylic acid] | 370 nM | 550 nM |
| COc1ccc(-c2cnc(Oc3ccccc3C(C)(C)C)c(NC(=O)Nc3cccc(C)c3)c2)cc1C(=O)O [Example 334] | 380 nM | 16700 nM |
| COc1ccc(-c2ccc(Oc3cccc4c3OC(C)(C)C4)c(NC(=O)Nc3cccc(C)c3)c2)cc1C(=O)O [Example 140, 4′-(2,2-dimethyl-2,3-dihydrobenzofuran-7-yloxy)-4-methoxy-3′-(3-m-tolylureido)biphenyl-3-carboxylic acid] | 970 nM | 3850 nM |
| CCc1ccccc1Oc1ccc(-c2ccc(OC)c(C(=O)O)c2)cc1NC(=O)Nc1cccc(Cl)c1 [Example 58, 3′-(3-(3-chlorophenyl)ureido)-4′-(2-ethylphenoxy)-4-methoxybiphenyl-3-carboxylic acid] | 240 nM | 770 nM |
| COc1ccc(-c2ccc(Oc3cccc4ccccc34)c(NC(=O)Nc3ccccc3Cl)c2)cc1C(=O)O [Example 128, 3′-(3-(2-chlorophenyl)ureido)-4-methoxy-4′-(naphthalen-1-yloxy)biphenyl-3-carboxylic acid] | 40 nM | 250 nM |
| Cc1ccccc1NC(=O)Nc1cc(-c2ccc(Cl)cc2C(=O)O)ccc1Oc1ccccc1C(C)(C)C [Example 159, 4′-(2-tert-butylphenoxy)-4-chloro-3′-(3-o-tolylureido)biphenyl-2-carboxylic acid] | 870 nM | 3470 nM |
| COc1ccc(-c2ccc(Oc3ccccc3C(C)(C)C)c(NC(=O)Nc3ccc(C)cc3C)c2)cc1C(=O)O [Example 94, 4′-(2-(tert-butyl)phenoxy)-3′-(3-(2,4-dimethylphenyl)ureido)-4-methoxy-[1,1′-biphenyl]-3-carboxylic acid] | 170 nM | 3060 nM |
| O=C(Nc1ccccc1F)Nc1cc(-c2ccccc2-c2nnn[nH]2)ccc1Oc1cccc2c1CCCC2 [Example 188, 1-(2-fluorophenyl)-3-(4-(5,6,7,8-tetrahydronaphthalen-1-yloxy)-2′-(1H-tetrazol-5-yl)biphenyl-3-yl)urea] | 870 nM | 1830 nM |
| COc1ccccc1NC(=O)Nc1cc(-c2cccc(C(=O)O)c2)ccc1Oc1ccccc1C(C)(C)C [Example 227, 4′-(2-tert-butylphenoxy)-3′-(3-(2-methoxyphenyl)ureido)biphenyl-3-carboxylic acid] | 930 nM | 10000 nM |
| Cc1ccc(NC(=O)Nc2cc(-c3ccc(C(F)(F)F)cc3C(=O)O)ccc2Oc2ccccc2C(C)(C)C)cc1 [Example 177, 4′-(2-tert-butylphenoxy)-3′-(3-p-tolylureido)-4-(trifluoromethyl)biphenyl-2-carboxylic acid] | 200 nM | 420 nM |
| CCCCNC(=O)Nc1cc(-c2ccccc2-c2nnn[nH]2)ccc1Oc1ccccc1C(C)(C)C [Example 191, 1-butyl-3-(4-(2-tert-butylphenoxy)-2′-(1H-tetrazol-5-yl)biphenyl-3-yl)urea] | 340 nM | 1210 nM |
| COc1ccc(-c2ccc(Oc3cccc4c3CCC4)c(NC(=O)Nc3cccc(C)c3)c2)cc1C(=O)O [Example 144, 4′-(2,3-dihydro-1H-inden-4-yloxy)-4-methoxy-3′-(3-m-tolylureido)biphenyl-3-carboxylic acid] | 150 nM | 510 nM |
| O=C(Nc1ccc(Cl)cc1)Nc1cc(-c2ccc(C(=O)O)c(Cl)c2)ccc1Oc1ccccc1C(F)(F)F [Example 206, 3-chloro-3′-(3-(4-chlorophenyl)ureido)-4′-(2-(trifluoromethyl)phenoxy)biphenyl-4-carboxylic acid] | 850 nM | 3350 nM |
| COc1ccc(-c2ccc(Oc3ccccc3C(C)C)c(NC(=O)Nc3ccccc3C)c2)cc1C(=O)O [Example 64, 4′-(2-isopropylphenoxy)-4-methoxy-3′-(3-o-tolylureido)biphenyl-3-carboxylic acid] | 180 nM | 640 nM |
| Cc1ccc(NC(=O)Nc2cc(-c3ccc(C(=O)O)c(Cl)c3)ccc2Oc2ccccc2C(C)(C)C)cc1 [Example 257, 4′-(2-tert-butylphenoxy)-3-chloro-3′-(3-p-tolylureido) biphenyl-4-carboxylic acid] | 440 nM | 1250 nM |
| Cc1ccc(NC(=O)Nc2cc(-c3cccc(F)c3C(=O)O)ccc2Oc2ccccc2C(C)(C)C)cc1 [Example 171, 4′-(2-tert-butylphenoxy)-3-fluoro-3′-(3-p-tolylureido)biphenyl-2-carboxylic acid] | 90 nM | 310 nM |
| Cc1ccccc1NC(=O)Nc1cc(-c2ccccc2C(=O)O)ccc1Oc1ccccc1C(C)(C)C [Example 156, 4′-(2-tert-butylphenoxy)-3′-(3-o-tolylureido)biphenyl-2-carboxylic acid] | 640 nM | 680 nM |
